Results: ChEMBL document CHEMBL5252509, “In depth analysis of kinase cross screening data to identify chemical starting points for inhibition of the Nek family of kinases” (Medchemcomm, 2018)

Legend:
[1] = target: Serine/threonine-protein kinase Nek7 (Homo sapiens) (UniProt Q8TDX7); assay: Inhibition of NEK7 (unknown origin) at 1 uM relative to control
[2] = target: T1, Serine/threonine-protein kinase Nek10 (Homo sapiens) (UniProt Q6ZWH5); assay: Inhibition of NEK10 (unknown origin) at 1 uM relative to control
T1 sequence (whole entry): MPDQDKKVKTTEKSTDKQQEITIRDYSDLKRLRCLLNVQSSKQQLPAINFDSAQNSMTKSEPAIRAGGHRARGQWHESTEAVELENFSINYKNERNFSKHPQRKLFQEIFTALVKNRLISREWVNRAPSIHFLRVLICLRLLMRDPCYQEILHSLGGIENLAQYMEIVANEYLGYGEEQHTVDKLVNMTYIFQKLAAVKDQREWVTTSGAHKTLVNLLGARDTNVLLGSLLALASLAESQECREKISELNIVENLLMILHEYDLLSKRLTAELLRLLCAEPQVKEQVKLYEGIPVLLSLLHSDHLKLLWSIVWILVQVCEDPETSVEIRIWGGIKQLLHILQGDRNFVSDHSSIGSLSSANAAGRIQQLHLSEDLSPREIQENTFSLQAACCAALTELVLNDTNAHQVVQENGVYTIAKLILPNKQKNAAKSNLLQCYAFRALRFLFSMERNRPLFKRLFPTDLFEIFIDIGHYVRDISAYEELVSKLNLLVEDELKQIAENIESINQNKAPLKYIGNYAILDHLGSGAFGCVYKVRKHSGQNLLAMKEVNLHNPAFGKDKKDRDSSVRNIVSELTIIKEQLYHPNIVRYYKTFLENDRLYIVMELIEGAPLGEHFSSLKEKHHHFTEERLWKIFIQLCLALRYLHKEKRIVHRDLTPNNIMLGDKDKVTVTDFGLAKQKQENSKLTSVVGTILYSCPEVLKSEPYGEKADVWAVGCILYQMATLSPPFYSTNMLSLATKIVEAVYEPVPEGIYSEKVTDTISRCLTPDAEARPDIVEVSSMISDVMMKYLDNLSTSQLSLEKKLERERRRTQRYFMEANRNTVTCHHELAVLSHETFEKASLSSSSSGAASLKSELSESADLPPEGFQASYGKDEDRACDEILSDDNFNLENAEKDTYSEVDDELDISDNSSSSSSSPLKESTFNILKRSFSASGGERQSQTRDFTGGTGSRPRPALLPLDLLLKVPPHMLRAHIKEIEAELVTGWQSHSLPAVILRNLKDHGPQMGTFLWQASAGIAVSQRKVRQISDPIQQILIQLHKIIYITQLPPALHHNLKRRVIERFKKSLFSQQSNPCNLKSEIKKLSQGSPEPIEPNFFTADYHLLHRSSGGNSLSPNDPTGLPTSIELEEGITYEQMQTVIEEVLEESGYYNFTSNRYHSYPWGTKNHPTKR

[3] = target: T2, Serine/threonine-protein kinase Nek2 (Homo sapiens) (UniProt P51955); assay: Inhibition of NEK2 (unknown origin) at 1 uM relative to control
T2 sequence (whole entry): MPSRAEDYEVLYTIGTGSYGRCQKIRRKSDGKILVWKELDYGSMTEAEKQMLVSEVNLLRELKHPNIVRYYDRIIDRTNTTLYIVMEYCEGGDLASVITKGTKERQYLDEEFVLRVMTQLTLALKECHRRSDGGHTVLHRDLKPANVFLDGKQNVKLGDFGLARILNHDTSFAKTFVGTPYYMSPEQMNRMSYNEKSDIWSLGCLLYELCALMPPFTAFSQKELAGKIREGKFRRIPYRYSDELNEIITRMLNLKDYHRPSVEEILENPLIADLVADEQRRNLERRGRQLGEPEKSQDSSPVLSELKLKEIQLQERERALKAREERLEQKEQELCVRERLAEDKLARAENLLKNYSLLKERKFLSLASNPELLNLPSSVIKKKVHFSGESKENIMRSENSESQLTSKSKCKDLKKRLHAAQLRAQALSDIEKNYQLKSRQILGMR

[4] = target: T3, Serine/threonine-protein kinase Nek5 (Homo sapiens) (UniProt Q6P3R8); assay: Inhibition of NEK5 (unknown origin) at 10 uM relative to control
T3 sequence (whole entry): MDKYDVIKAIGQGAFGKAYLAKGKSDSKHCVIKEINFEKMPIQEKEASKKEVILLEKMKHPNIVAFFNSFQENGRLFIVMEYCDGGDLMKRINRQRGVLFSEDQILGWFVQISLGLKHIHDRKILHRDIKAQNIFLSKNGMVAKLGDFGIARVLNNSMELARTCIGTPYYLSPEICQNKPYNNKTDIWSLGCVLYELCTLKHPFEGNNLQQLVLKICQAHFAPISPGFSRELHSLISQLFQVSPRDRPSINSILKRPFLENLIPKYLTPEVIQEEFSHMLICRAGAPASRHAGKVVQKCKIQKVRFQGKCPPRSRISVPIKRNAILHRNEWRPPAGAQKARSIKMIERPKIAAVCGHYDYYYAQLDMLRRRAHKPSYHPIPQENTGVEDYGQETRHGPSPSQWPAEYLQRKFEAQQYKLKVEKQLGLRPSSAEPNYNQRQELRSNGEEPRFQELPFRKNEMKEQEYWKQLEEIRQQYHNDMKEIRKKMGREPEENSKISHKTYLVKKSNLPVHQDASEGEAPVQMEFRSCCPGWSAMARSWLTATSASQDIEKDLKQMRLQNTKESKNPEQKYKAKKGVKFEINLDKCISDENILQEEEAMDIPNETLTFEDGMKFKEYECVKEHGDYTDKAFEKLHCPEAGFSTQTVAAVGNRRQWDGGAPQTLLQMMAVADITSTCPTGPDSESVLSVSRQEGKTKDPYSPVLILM

Sequence of Serine/threonine-protein kinase Nek7 (Homo sapiens) (Q8TDX7 whole entry, looked up): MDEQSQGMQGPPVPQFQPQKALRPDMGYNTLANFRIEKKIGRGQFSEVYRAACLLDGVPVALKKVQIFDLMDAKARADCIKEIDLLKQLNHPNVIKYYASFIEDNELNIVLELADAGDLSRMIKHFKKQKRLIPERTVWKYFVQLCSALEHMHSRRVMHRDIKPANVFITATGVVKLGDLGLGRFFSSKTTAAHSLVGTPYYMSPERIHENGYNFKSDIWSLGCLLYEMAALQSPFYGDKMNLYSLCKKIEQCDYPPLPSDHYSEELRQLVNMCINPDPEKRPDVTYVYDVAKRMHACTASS

SMILES: Nc1nccc2scc(-c3ccc4c(c3)CCN4C(=O)Cc3ccccc3)c12
- inhibition [1]: 0%
- inhibition [2]: 9%
- inhibition [3]: 4%

SMILES: COc1ccc(Nc2ncc(C#N)c(Nc3ccccc3C(N)=O)n2)cc1N1CCN(C)CC1
- inhibition [1]: 2.6%
- inhibition [2]: 5.9%
- inhibition [3]: 0.4%

SMILES: Cn1cc(-c2cnc(N)c3c(-c4ccc5c(c4)CCN5C(=O)Cc4ccccc4)csc23)cn1
- inhibition [1]: 0%
- inhibition [2]: 22%
- inhibition [3]: 28%

SMILES: Cc1ccccc1CC(=O)N1CCc2cc(-c3cn(C)c4ncnc(N)c34)ccc21
- inhibition [1]: 0%
- inhibition [2]: 0%
- inhibition [3]: 97%

SMILES: Cn1cc(-c2ccc3c(c2)CCN3C(=O)Cc2cccc(C(F)(F)F)c2)c2c(N)ncnc21
- inhibition [1]: 11%
- inhibition [2]: 18%
- inhibition [3]: 15%

SMILES: Cn1cc(-c2ccc3c(c2)CCN3C(=O)Cc2cccc(Cl)c2)c2c(N)ncnc21
- inhibition [1]: 0%
- inhibition [2]: 18%
- inhibition [3]: 66%

SMILES: O=c1[nH]ccc2nc(N[C@@H]3CCCNC3)nc(Nc3ccc(S(=O)(=O)N4CCOCC4)cc3)c12
- inhibition [1]: 65%
- inhibition [2]: 4.4%
- inhibition [3]: 20%

SMILES: NCCNS(=O)(=O)c1ccc(-c2ccnc3[nH]ccc23)cc1
- inhibition [1]: 0%
- inhibition [2]: 69%
- inhibition [3]: 0%

SMILES: c1ccc(-c2ccnc3[nH]ccc23)cc1
- inhibition [1]: 0%
- inhibition [2]: 30%
- inhibition [3]: 74%

SMILES: Cc1cc(NC(=O)c2cccc(NC(=O)/C=C/CN(C)C)c2)ccc1Nc1nccc(-c2cccnc2)n1
- % control [4]: 92%

SMILES: COc1cccc(C2=C(Nc3cccc(Cl)c3)C(=O)NC2=O)c1
- inhibition [1]: 5%
- inhibition [2]: 73%
- inhibition [3]: 13%

SMILES: COc1cccc(C2=C(Nc3ccc(Cl)c(C(=O)O)c3)C(=O)NC2=O)c1
- inhibition [1]: 0%
- inhibition [2]: 73%
- inhibition [3]: 0%

SMILES: Nc1nccc2scc(-c3ccc4c(c3)CCN4C(=O)Cc3cc(F)ccc3F)c12
- inhibition [1]: 0%
- inhibition [2]: 12%
- inhibition [3]: 7%

SMILES: Cc1ccc(CC(=O)N2CCc3cc(-c4cn(C)c5ncnc(N)c45)ccc32)cc1
- inhibition [1]: 0%
- inhibition [2]: 0%
- inhibition [3]: 96.9%

SMILES: CN(C)C/C=C/C(=O)Nc1ccc(C(=O)Nc2cccc(Nc3nccc(-c4cccnc4)n3)c2)cc1
- % control [4]: 2.2%

SMILES: O=S(=O)(c1ccc(-c2ccnc3[nH]ccc23)cc1)N1CCCC1
- inhibition [1]: 20%
- inhibition [2]: 15%
- inhibition [3]: 16%

SMILES: CN(C)CCNS(=O)(=O)c1ccc(-c2ccnc3[nH]ccc23)cc1
- inhibition [1]: 0%
- inhibition [2]: 17%
- inhibition [3]: 0%

SMILES: CC(C)Oc1ccc2c(-c3ccnc(Nc4ccc(N5CCN(C)CC5)cc4)n3)cnn2n1
- inhibition [1]: 7.4%
- inhibition [2]: 2.4%
- inhibition [3]: 6.7%

SMILES: O=C1NC(=O)C(c2ccccc2Cl)=C1Nc1cccc(Cl)c1
- inhibition [1]: 16%
- inhibition [2]: 51%
- inhibition [3]: 10%

SMILES: CC(C)c1nc(-c2cccc(NS(=O)(=O)c3ccccc3)c2)c(-c2ccnc(Nc3ccc4c(c3)CN(C)CC4)n2)s1
- inhibition [1]: 100%
- inhibition [2]: 100%
- inhibition [3]: 66%

SMILES: COc1cccc(CC(=O)N2CCc3cc(-c4cn(C)c5ncnc(N)c45)ccc32)c1
- inhibition [1]: 11%
- inhibition [2]: 7%
- inhibition [3]: 74%

SMILES: COc1ccc(C2=C(Nc3cccc(C(=O)O)c3)C(=O)NC2=O)cc1
- inhibition [1]: 28%
- inhibition [2]: 2%
- inhibition [3]: 10%

SMILES: Cn1cc(-c2ccc3c(c2)CCN3C(=O)Cc2cccc(F)c2)c2c(N)ncnc21
- inhibition [1]: 0%
- inhibition [2]: 22%
- inhibition [3]: 73%

SMILES: Nc1ncc(-c2cn[nH]c2)c2scc(-c3ccc4c(c3)CCN4C(=O)Cc3ccccc3)c12
- inhibition [1]: 0%
- inhibition [2]: 22%
- inhibition [3]: 85%

SMILES: COc1cc(Nc2ncc3c(C)nc(-c4cc5ccccc5[nH]4)n3n2)cc(OC)c1OC
- inhibition [1]: 70%
- inhibition [2]: 0%
- inhibition [3]: 70%

SMILES: Cc1ccc(NC(=O)c2ccc(NC(=O)/C=C/CN(C)C)cc2)cc1Nc1nccc(-c2cccnc2)n1
- % control [4]: 51%

SMILES: Cn1cc(-c2ccc3c(c2)CCN3C(=O)Cc2ccccc2Cl)c2c(N)ncnc21
- inhibition [1]: 17%
- inhibition [2]: 0%
- inhibition [3]: 79%

SMILES: CN(C)C/C=C/C(=O)Nc1cccc(C(=O)Nc2ccc(Nc3nccc(/C(C#N)=C4\Nc5ccccc5S4)n3)cc2)c1
- % control [4]: 100%

SMILES: Cn1cc(-c2ccc3c(c2)CCN3C(=O)Cc2cc(F)cc(C(F)(F)F)c2)c2c(N)ncnc21
- inhibition [1]: 0%
- inhibition [2]: 6%
- inhibition [3]: 18%

SMILES: Cn1cc(-c2ccc3c(c2)CCN3C(=O)Cc2cc(F)cc(F)c2F)c2c(N)ncnc21
- inhibition [1]: 0%
- inhibition [2]: 10%
- inhibition [3]: 84%

SMILES: COc1cccc(C2=C(Nc3cccc(O)c3)C(=O)NC2=O)c1
- inhibition [1]: 7%
- inhibition [2]: 67%
- inhibition [3]: 0%

SMILES: CN(C)C/C=C/C(=O)Nc1cccc(C(=O)Nc2ccc(Nc3nccc(-c4cccnc4)n3)cc2)c1
- % control [4]: 7.8%

SMILES: CS(=O)(=O)Nc1ccc(-c2ccnc3[nH]ccc23)cc1
- inhibition [1]: 10%
- inhibition [2]: 71%
- inhibition [3]: 0%

SMILES: CC(C)c1nc(-c2cccc(NS(=O)(=O)c3c(F)cccc3F)c2F)c(-c2ccnc(Nc3ccc(N4CCOCC4)nc3)n2)s1
- inhibition [1]: 7.1%
- inhibition [2]: 100%
- inhibition [3]: 0.9%

SMILES: Nc1ncc(-c2cccnc2)c2scc(-c3ccc4c(c3)CCN4C(=O)Cc3ccccc3)c12
- inhibition [1]: 19%
- inhibition [2]: 14%
- inhibition [3]: 70%

SMILES: Fc1cc(-c2cc[nH]/c(=N/c3ccc(-n4cnc(N5CCOCC5)n4)cc3)n2)cc(N2CCOCC2)c1
- % control [4]: 1.4%

SMILES: O=C1NC(=O)/C(=C/c2ccc3nccc(-c4ccncc4)c3c2)S1
- % control [4]: 100%

SMILES: CN(C)C/C=C/C(=O)Nc1cccc(C(=O)Nc2ccc(Nc3nccc(-c4c(-c5ccccc5)nn5ccccc45)n3)cc2)c1
- % control [4]: 98%
